# In publication PMC10126419, “pyHeart4Fish: Chamber-specific heart phenotype quantification of zebrafish in high-content screens” (Frontiers in Cell and Developmental Biology, 2023):
# Entries after “also recorded” stand apart in the source; their conditions may differ.
# How the values were obtained:
# zebrafish embryos [1] = assay: Gross morphology / development of treated zebrafish 2 dpf (brightfield); assay type: in vivo; conditions: 20 µM, 2 dpf
# Method: FIGURE 5 Morphology of treated zebrafish 2 dpf. An overview of the gross phenotypes of treated zebrafish 2 days post-fertilization. All compounds were dissolved in DMSO; therefore, DMSO served as the negative control. NaCl served as the salt control. The effects of atorvastatin treatment on zebrafish embryos were previously established; thus, this drug was used as a positive control for cardioactivity. The aquatic toxic compound enilconazole was used as the toxic positive control. […] The black arrow in the image of iopanoic acid-treated zebrafish embryo indicates caudal fin deformity. The scale bar indicates 500 µm in overview brightfield images and 150 µm in fluorescence images. (a) Atrium; (v) ventricle.
# zebrafish embryos [2] = assay: Toxicity score (ToxScore) at increasing compound concentrations
# Method: (§1) Embryos were dechorionated at 21 hpf using 0.22 mg/ml pronase (Merck Chemicals) for 12 min. Then, embryos were carefully washed three times with egg water and transferred into a 96-deep-well plate. After incubation at 28°C for 3 h, excess water was removed with a glass capillary and exchanged with 100 µL/well of 20 µM compound solution from the Prestwick Chemical Library (Prestwick Chemicals, France) in 0.2% DMSO (v/v) in egg water. […] Subsequently, embryos were exposed to compounds for 24 h at 28°C in the dark to enable testing of light-sensitive compounds. Solutions were removed at 48 hpf before wells containing embryos were washed three times with system water. Then, treated embryos were transferred into 12-well plates containing 1 ml 0.03% tricaine in system water (Sigma-Aldrich, Germany). Testing different concentrations (5–80 µM) of compounds and their respective controls followed the above protocol.
# Embryos that were deceased and not intact were assigned a max. ToxScore value of 5.
# [3] = test system: Tg(myl7:eGFP)^twu34/+ zebrafish embryos; assay: Chamber-specific quantitative heart phenotyping with pyHeart4Fish; conditions: 20 µM; for Arrhythmia / Conduction defect: number of fish;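 on all read-outs here: embryos exposed 24 h from 24 hpf in 0.2% DMSO egg water, tricaine-anaesthetised, heartbeat videos imaged at 470 nm and hearts analysed chamber by chamber from pixel-intensity beat curves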
# Method: as §1
# Oriented embryos in 96-well plates were automatically imaged using an [sequence] Imaging Machine ([sequence] Imaging, Germany) widefield microscope. Z-stacks of 10 slices (dZ = 15 µm) were acquired in brightfield (BF) and 470 nm channels with a 4×0.13 numerical aperture objective. The focal plane was detected in the 470 nm channel using a course and secondary fine software autofocus. BF integration time was fixed at 20 ms exposure time and 55% LED intensity. The exposure time for the 470 nm channel was set to 10 ms with a 10% LED intensity. Heartbeat videos of 6 s at 6 frames/second (f/s) were acquired with a time-lapse at a 0 s interval in the focus plane acquired after secondary autofocus using the previously described integration and exposure settings with a 10×0.25 numerical aperture objective.
# Hearts are analyzed chamber-specifically via the user-assisted region of interest (ROI) selection. Cardiac morphology parameters (HS and shape) are extracted as the median of the first six images/frames. Raw data of heartbeat curves for the atrium and ventricle are derived from the sum of pixel intensities and normalized chamber areas. Frequencies (in s^-1) of atrium and ventricle contraction are obtained by applying sine-curve fitting or fast Fourier transformation (FFT) using the SciPy modules “optimize.curve_fit” and “fft.rfft/fft.rfftfreq”, respectively ([Virtanen et al., 2020]). Curve fitting is performed with a maximum of 30 iterations while increasing the frequencies of the fitted sine function. The best fit is selected using the correlation coefficient between the raw data and the fitted function implemented in the NumPy package. A fitted sine function and fitting score are also determined for a truncated signal (first quarter), and the best-fitted sine function is kept to account for an unstable heartbeat signal. In the case of FFT, the first harmonic of the FFT signal is used as the frequency of the atrium or ventricle contraction. Analysis with pyHeart4Fish provides heartbeat videos in GIF format, heartbeat curves as PNG/PDF files and a data sheet containing meta information and cardiac parameters.
# zebrafish embryos [4] = conditions: 71 μM, ref Yang et al., 2014; cited from earlier work
# zebrafish embryos [5] = assay: Manually assessed pericardial edema in treated zebrafish; assay type: in vivo; conditions: 20 µM; for Pericardial edema severity: myl7:eGFP zebrafish; for Edema: Mild / Edema: Moderate / Edema: No edema / Edema: Severe: number of fish, Tg(myl7:eGFP)
# From the text: FIGURE 4 Quantitative data analysis with pyHeart4Fish. […] (A) The left graph presents the detected heart rate derived from the fast fourier transformation (FFT). […] (B) Percentual data on the severity of manually assessed pericardial edema in treated Tg(myl7:eGPF)^twu34/+ zebrafish. (C) The relative contractility derived from percentual size changes of each heart chamber (left graph). Approximate ejection fraction determined by chamber volume changes (right graph). […] The number of fish analyzed is shown in brackets after the treatment condition. Dotted gray lines indicate z-scores of ±1.96 and statistical significance with an alpha error of 5%.
# zebrafish embryos [6] = assay: as above; assay type: in vivo; conditions: 20 µM, fli1a:eGFP zebrafish
Structure (SMILES),Gross morphology / developmental and teratogenic effects (zebrafish embryos [1]; listed as CHX),Concentration-dependent toxic effects (zebrafish embryos [2]; 5–80 µM),Arrhythmia [3],Conduction defect [3],Effect on ventricular volume (zebrafish embryos [4]),Pericardial edema severity (zebrafish embryos [5]),Edema: Mild (zebrafish embryos [5]),Edema: Moderate (zebrafish embryos [5]),Edema: No edema (zebrafish embryos [5]),Edema: Severe (zebrafish embryos [5]),Gross morphology / developmental and teratogenic effects (zebrafish embryos [1]; listed as IOP),ToxScore (zebrafish embryos [2]; 80 µM),Pericardial edema severity (zebrafish embryos [6]),"Effect on heart function / morphology: contractility, conduction, arrhythmia, HS, EF ([3]; vs DMSO controls)"
C[C@@H]1C[C@@H]([C@H](O)CC2CC(=O)NC(=O)C2)C(=O)[C@@H](C)C1 [Cycloheximide],bent tails; also recorded: development was delayed,doses higher than 40 µM induced cardiac arrest and severe pericardial edema,3,0,decreased ventricular volume,moderate to severe pericardial edema,0,3,1,3,–,–,–,–
CCC(Cc1c(I)cc(I)c(N)c1I)C(=O)O (stereo not drawn) [Iopanoic acid],–,–,0,0,–,mild edema,2,1,1,0,developmental delay; also recorded: caudal fin deformities,4.4,moderate edema,"Contractility, HS and EF were not affected"
